Assay results as given in publication PMC6499206, “Quantification of Volatile Metabolites Derived From Garlic (Allium sativum) in Human Urine” (Frontiers in Nutrition, 2019).

Experiment: Quantification of garlic-derived metabolites in human urine after ingestion of 3 g raw garlic (SIDA, SAFE, HRGC-MS / HRGC-GC-MS)
Type: in vivo
Settings: human urine; also refs 5, 16
Text: Human urine samples were obtained from 18 volunteers (age 22–38 years, mean 27 years; 11 females, 7 males); thereby, one volunteer conducted the whole experimental series twice. At the time of examination, volunteers reported no known illness that might have potentially influenced the metabolism or the excretion of urine. The test persons were instructed to avoid foods that were rich in sulfur-containing substances at the testing day as well as 2 days preceding the testing day, namely garlic, onion, wild garlic, chives, cabbage, and leek, and were only allowed to consume the garlic sample provided in the course of the experiments. Additionally, subjects were asked to keep records of the food (including food supplements) and beverages they consumed during these 3 testing days. Generally, the overall panelists' requirements were in accordance with our previous studies ([5], [16]).
On the sampling day, the outer garlic cloves of a whole garlic bulb were peeled and cut into ~3 mm cubes by using a garlic cutter (Genius GmbH, Limburg/Lahn, Germany). Subsequently these cubes were thoroughly mixed and aliquoted into 3 g portions. Three to four test persons conducted the experiment at the same day. Each test person was asked to ingest a garlic portion of 3 g. In total, eight consecutive urine samples were provided by each test person, comprising one whole urine set. The samples were collected in sterile brown glass bottles, with sampling times as follows: one sample was provided directly prior to garlic consumption. The series of the second to eighth sample was then obtained at about 0.5, 1, 2, 4, 6, 8, and 24 h after garlic consumption, respectively. Between the first urine sample (prior to garlic consumption) and the seventh urine sample (8 h after garlic consumption) test persons only spent urine at the specific time points mentioned before. Another sample was provided at the next morning (24 h after garlic consumption). Between the samples provided 8 and 24 h after garlic consumption no urine was collected. All samples were immediately placed into a −80°C freezer and were kept frozen until further analysis.
The samples of each set were termed according to their sampling time. The following list provides the time intervals that are related to the respective sample name: • - pre: before garlic consumption • - 0.5 h post: 0.4–0.8 h after garlic consumption • - 1 h post: 0.9–1.3 h after garlic consumption • - 2 h post: 1.8 h−2.2 h after garlic consumption • - 4 h post: 3.8–4.4 h after garlic consumption • - 6 h post: 5.8–6.4 h after garlic consumption • - 8 h post: 7.8–8.4 h after garlic consumption • - 24 h post: 23.8–25.6 h after garlic consumption
A creatinine kit (Labor+Technik Eberhard Lehmann GmbH, Berlin, Germany) was used to determine the creatinine content in each urine sample. The determination principle of this kit is based on the reaction of creatinine with picric acid under basic conditions (Jaffé reaction). The formed complex was detected photometrically at a wavelength of 492 nm.
For quantification purposes, the deuterated standards ^2H3-AMS, ^2H3-AMSO, and ^2H3-AMSO2 were added to the sample and stirred for 10 min. Subsequently, DCM was added in a ratio of 1:2 (DCM/human urine; v/v) and this solution was stirred for further 30 min at room temperature. To isolate the volatile fraction from the urine samples we then applied SAFE-distillation ([17]), thereby distilling the respective samples at 50°C. After completion of the distillation process, 10 mL of DCM were applied in each case to rinse the SAFE apparatus and to ensure complete transition of the volatile compounds. This process was repeated with another 10 mL of DCM. After thawing, the obtained aqueous distillate phase was extracted three times with 25 mL DCM. The organic phases were combined, dried over anhydrous Na2SO4 and concentrated to a total volume of 100 μL by means of Vigreux distillation and subsequent micro-distillation at 50°C. […]

## C=CCS(=O)(=O)CC=C [diallyl sulfone]
  presence as metabolite in human urine after garlic consumption: exclude the presence
